Source: patent publication US8105994B2, “Personal wash cleanser comprising defined alkanoyl compounds, defined fatty acyl isethionate surfactant product and skin or hair benefit agent delivered in flocs upon dilution” (priority 2010, dated 2012)

Test system: skin, intrascapular area of the back
Test: 14-day cumulative irritation Patch Test, cleansers diluted to 25% w/w in distilled water, occlusive patch
Description: This was randomized, double-blind study. A sufficient number of subjects were recruited to ensure that 25 subjects completed the study. The 14-day cumulative irritation test was conducted as follows. Patching occurred for 14 consecutive days, except on Sundays. Patches applied on Saturday were left in place until Monday, when freshly prepared patches were applied. The designated patch test sites were approximately 2 cm×2 cm on the intrascapular area of the back. Approximately 0.2 mL of the test product was placed onto a Parke-Davis Readi-Bandage® occlusive patch that measured 2 cm×2 cm. Solutions were made by diluting the cleansers to 25% w/w in distilled water. The patch was then applied to the designated test site. The patches were secured with hypoallergenic tape (Scanpor {Allerderm} as needed). A 0.5% sodium dodecyl sulfate (SDS) solution was used as the control in the test.
Each day following application, the patches were removed, the sites evaluated and identical patches reapplied to the same test sites. All evaluations were made using the following 6-point scoring system: • 0=No evidence of any effect • +=Barely perceptible (minimal, faint, uniform or spotty erythema) numerically equivalent to 0.5 • 1=Mild (pink, uniform erythema covering most of the contact site) • 2=Moderate (pink-red, erythema uniform in the entire contact site) • 3=Marked (bright red erythema with/without petechiae or papules) • 4=Severe (deep red erythema with/without vesiculation or weeping)
If a dermal reaction of 3 or 4 occur with any of the test articles at any point during the study, further patch testing on that subject was terminated at the test site involved, and the attained score was assigned to that site for the subsequent scheduled test days.
Cumulative irritation scores, which were the sum of the numerical irritation grades assigned daily during the 14-day test period, were calculated at the end of the study to compare mildness of the test products. […] The data were statistically analyzed using Tukey-Kramer Comparison, and statistical significance was determined at the 95% confidence level.

With `CCCCCCCCCCCCOS(=O)(=O)[O-].[Na+]` [0.5% SDS Solution, sodium dodecyl sulfate] as the compound, how does the “Total irritation score compared to 0.5% SDS solution” value (Table 1, first patch test (Olay products)) read?
Its value is 100%.

What about the “Patch test Total irritation score” value (Table 1, first patch test (Olay products; 0.5% SDS control 783)) of the same compound?
Its value is 783.

And the “Total irritation score compared to 0.5% SDS solution” value (Table 1, second patch test (Dove Deep Moisture))?
The value was 100%.

And the “Patch test Total irritation score” value (Table 1, second patch test (Dove Deep Moisture; 0.5% SDS control 912))?
The value was 912.
